Where “and” joins values, the source holds several entries; their conditions need not be identical. Identical values can stand only once.
What was measured:
[1] = system: Th1, Th2, Th17, and Treg cells; experiment: T cell subset marker mRNA in splenocytes of CPP-induced animal model (qPCR); assay type: in vivo; conditions: mice, 150 mg/kg CPP only
Method: In addition, RNA was isolated from the splenocytes at 2×10^6 cells/sample using a TRIZOL® reagent (Thermo, US), and cDNA was synthesized using ACCUPOWER® RT PreMix & Master Mix (Bioneer, KO). To confirm changes in differentiation of Th1, Th2, Th17, and Treg cells, T cell subsets, using the synthesized cDNA and ACCUPOWER® GreenStar™ qPCR PreMix (Bioneer, KO), expression levels of TBX21, GATA3, RORγt, IL-17A, Foxp3, and CTLA-4 mRNA in these cells were measured.

[2] = system: cyclophosphamide (CPP)-induced animal model; experiment: Antibodies in blood of CPP-induced animal model (ELISA); assay type: in vivo; conditions: mice, 150 mg/kg CPP only, serum ELISA
Method: (§1) The blood of a CPP-induced animal model was reacted at room temperature for two hours and then centrifuged at 4000 rpm for 10 minutes to isolate serum. The secretion amounts of IgG, IgA, and IgM were measured from the isolated serum using an ELISA kit (Thermo, US).

[3] = system: natural killer cells (NK cells); experiment: Cytotoxicity of NK cells from CPP-induced animal model (LDH, YAC-1 cells); conditions: mice, 150 mg/kg CPP only, YAC-1 cells: splenocytes 1:50, four hours
Method: The test was performed in the following four groups with seven mice per group: a normal control (NC), a group treated with 150 mg/kg of CPP, a group treated with 1×10^9 CFU/mouse (10^9 CFU) ATG-V5 (V5 strain), and a group treated with 1×10^10 CFU/mouse (V5 10^10 CFU) ATG-V5 (V5 strain).
To measure the cytotoxicity of natural killer cells (NK cells), the spleen was isolated from a CPP-induced animal model, and then the tissue was ground to obtain splenocytes. Next, the splenocytes were mixed with YAC-1 cells in a ratio of the YAC-1 cells: the splenocytes of 1:50 and then incubated in a CO2 incubator at 37° C. for four hours. The amount of LDH was measured using an LDH-cell cytotoxicity assay kit.

splenocytes = experiment: Cell viability of splenocytes from CPP-induced animal model (WST); assay type: in vivo; conditions: mice, 150 mg/kg CPP only, splenocytes incubated 48 hours
Method: To measure the cell viability of splenocytes, a collection of cells involved in various cellular immunity, splenocytes from each mouse were seeded in a 96-well plate at 1×10^4 cells/well and then incubated in a 37° C. CO2 incubator for 48 hours. Next, the splenocytes were treated with WST to measure cell viability.

[4] = system: cyclophosphamide (CPP)-induced animal model; experiment: Thymus and spleen weight in CPP-induced animal model; assay type: in vivo; conditions: mice
Method: To confirm the immunity-enhancing efficacy of the V5 strain in a cyclophosphamide (CPP)-induced animal model, tests were performed for each concentration of the V5 strain. Cyclophosphamide (CPP) is an anticancer drug widely used for all types of cancers, sarcomas, leukemia, and malignant lymphoma, and is a non-specific immunosuppressant. […] When CPP suppresses immunity, the weight of the thymus, an immune tissue, and the number of thymocytes are reduced, and the spleen weight is increased as a result of a defense mechanism against immunosuppression.
To confirm the effect of the V5 strain on the weight of the thymus and spleen of a CPP-induced animal model, the weight of the thymus and spleen of the animal model was measured.

[5] = system: cyclophosphamide (CPP)-induced animal model; experiment: Cytokines in blood of CPP-induced animal model (ELISA); assay type: in vivo; conditions: mice, 150 mg/kg CPP only, serum ELISA; tendency
Method: as §1
In addition, enzyme-linked immunosorbent assay (ELISA) for IL-6, IL-2, IL-10, and IL-4 was performed using the serum.

In the case of `O=P1(N(CCCl)CCCl)NCCCO1` (stereo not drawn) [CPP, cyclophosphamide], the “Overall number of T cell subsets (mRNA in splenocytes)” value [1] is reported as “suppressing”, the “Secretion amount of IgA in the blood” value [2] is reported as “reduced” and the “Secretion amount of IgG in the blood” value [2] is reported as “reduced”. The “Secretion amount of IgM in the blood” value [2] was “failed to cause changes”, the “Cytotoxicity of NK cells” value [3] was 144% and the “Cell viability of splenocytes” value (splenocytes) was 99.98%. The Thymus weight ([4]; group treated with 150 mg/kg of CPP only (normal control 0.061 g), 150 mg/kg) was 0.03 g and 0.031 g, the Spleen weight ([4]; group treated with 150 mg/kg of CPP only (normal control 0.105 g)) was 0.170 g and the “Cytokines in the blood (IL-6, IL-2, IL-10, IL-4)” value [5] was “reduced”.

— patent US12721870B2 (priority 2021, dated 2026)
